First the molecules themselves.
B1: CP4-12: dsRNA trigger, 82-462 of SEQ ID NO:1 (CP4 EPSPS), a 381 polynucleotide (nucleic acid, listed as Agrobacterium tumefaciens)
DNA: ATCTCCCACCGGTCCTTCATGTTCGGCGGTCTCGCGAGCGGTGAAACGCGCATCACCGGCCTTCTGGAAGGCGAGGACGTCATCAATACGGGCAAGGCCATGCAGGCCATGGGCGCCAGGATCCGTAAGGAAGGCGACACCTGGATCATCGATGGCGTCGGCAATGGCGGCCTCCTGGCGCCTGAGGCGCCGCTCGATTTCGGCAATGCCGCCACGGGCTGCCGCCTGACCATGGGCCTCGTCGGGGTCTACGATTTCGACAGCACCTTCATCGGCGACGCCTCGCTCACAAAGCGCCCGATGGGCCGCGTGTTGAACCCGCTGCGCGAAATGGGCGTGCAGGTGAAATCGGAAGACGGTGACCGTCTTCCCGTTACCTTG
modifications: dsRNA form
B2: CP4-34: dsRNA trigger, 594-1043 of SEQ ID NO:1 (CP4 EPSPS), a 450 polynucleotide (nucleic acid, listed as Agrobacterium tumefaciens)
DNA: CGATCATACGGAAAAGATGCTGCAGGGCTTTGGCGCCAACCTTACCGTCGAGACGGATGCGGACGGCGTGCGCACCATCCGCCTGGAAGGCCGCGGCAAGCTCACCGGCCAAGTCATCGACGTGCCGGGCGACCCGTCCTCGACGGCCTTCCCGCTGGTTGCGGCCCTGCTTGTTCCGGGCTCCGACGTCACCATCCTCAACGTGCTGATGAACCCCACCCGCACCGGCCTCATCCTGACGCTGCAGGAAATGGGCGCCGACATCGAAGTCATCAACCCGCGCCTTGCCGGCGGCGAAGACGTGGCGGACCTGCGCGTTCGCTCCTCCACGCTGAAGGGCGTCACGGTGCCGGAAGACCGCGCGCCTTCGATGATCGACGAATATCCGATTCTCGCTGTCGCCGCCGCCTTCGCGGAAGGGGCGACCGTGATGAACGGTCTGGAAGAACT
modifications: dsRNA form

Consider 36 molecules from US20130288895A1, “METHODS AND COMPOSITIONS FOR WEED CONTROL” (priority 2011, published 2013).

The test system of the first data set is Corn plants transformed with the CP4 EPSPS gene. Kind of data set: CP4 EPSPS dsRNA triggers plus RoundUp Ultra on transgenic glyphosate tolerant corn. As to conditions: trigger 210, 630, 1890 pmol; RoundUp Ultra 1.5 a.e. lb/acre two-three days later; FIG. 2.
Method: Corn and cotton plants that were transformed with the CP4 EPSPS gene and are resistant to glyphosate were planted in pots in a greenhouse along with negative isolines for each and grown to the first true leaf emergence stage then treated with a trigger solution containing 0.5% Silwet L77, 2% ammonium sulfate, 20 mM Na Phoshpate (pH 6.8) at different rates of trigger amount, 0 picomoles (pmol), 210 pmol, 630 pmol and 1890 pmol. For each replication (8-10 plants), two fully expanded cotyledons were treated by pipette with 50 microliters of trigger solution each, then sprayed two-three days later with 1.5 a.e.lb/acre) of RoundUp™ Ultra (glyphosate, Monsanto, St Louis, Mo.). The cotton and corn plants were scored for stunting and injury 7-16 days after spray treatment.
For B1, the “glyphosate injury of corn plants” value is reported as “dead or damaged terminal leaves”.

Regarding B2, the “glyphosate injury of corn plants” value is “dead or damaged terminal leaves”.

In a further data set the test system is A. palmeri (R-22). As to the kind of experiment: Greenhouse test: 2,4-D, glyphosate and trigger polynucleotides. The class given is in vivo. As to conditions: 2,4-D 0.0625 lb/A; RU Wmax 1.5 lb/A where included; 14 days after treatment.
Take `CNC.O=C(O)COc1ccc(Cl)cc1Cl` [2,4-D, 2,4D amine (dimethylamine salt)]: the “% Control (mean)” value amounted to 60%.

The data set is the same for the next values; noted with them: 2,4-D 0.125 lb/A; RU Wmax 1.5 lb/A where included; 14 days after treatment.
`CNC.O=C(O)COc1ccc(Cl)cc1Cl` [2,4-D, 2,4D amine (dimethylamine salt)]: the “% Control (mean)” value is 80.8%.

Another data set has as its system Amaranthus palmeri plants (glyphosate-resistant Palmer amaranth, “R-22”). Kind of data set: Topical trigger oligonucleotide bioassay with glyphosate on Amaranthus palmeri. Format: in vivo. Details: key: relative measure of activity, the tested oligonucleotide was either active, less active, or inactive in the bioassay; relative measure of activity, the tested oligonucleotide was either active, less active, or inactive in the bioassay; relative measure of activity, the tested oligonucleotide was either active, less active, or inactive in the bioassay. As to conditions: 5.2 triggers to A. palmeri EPSPS coding sequence; topical application with Silwet L-77, glyphosate; relative measure of activity.
As to “AATGCCAGATGTTGCTATGAC (AATGCCAGATGTTGCTATGAC; antisense; DNA, backbone and methylation of C not given here; 5.2-DNA-wt is double-stranded DNA) [Oligo 5.2-ssDNA-S, ssDNA 21-mer, sense]”, the Activity result is listed as “less active”.

As for ATA GCA ACA TCT GGC ATT [5.2-RNA-5′-18], the outcome was inactive.

Regarding “C ATA GCA ACA TCT GGC ATT [5.2-RNA-5′-19]”, the Activity result is recorded as “less active”.

With “GTCATAGCAACATCTGGCATT [5.2-DNA-wt] (GTCATAGCAACATCTGGCATT; DNA, backbone and methylation of C not given here; 5.2-DNA-wt is double-stranded DNA) [Oligo 5.2-DNA-wt, dsDNA 21-mer]”, the result was active.

As for “GTCATAGCAACATCTGGCATT [5.2-asDNA/sRNA] (GTCATAGCAACATCTGGCATT; chemistry not fully specified) [DNA/RNA hybrid 21-mer]”, the outcome was inactive.

As for “GTCATAGCAACATCTGGCATT [5.2-sDNA/asRNA] (GTCATAGCAACATCTGGCATT; RNA, backbone and T or U not given here; hybrid: sense DNA strand with antisense RNA strand) [DNA/RNA hybrid 21-mer]”, the outcome was inactive.

As to “GTCATAGCAACATCTGGCATT [5.2-ssDNA-AS] (GTCATAGCAACATCTGGCATT; antisense; DNA, backbone and methylation of C not given here; 5.2-DNA-wt is double-stranded DNA) [Oligo 5.2-ssDNA-AS, ssDNA 21-mer, antisense]”, the Activity result is listed as “less active”.

As for “GTCATAGCAACATCTGGCATT [Oligo 5.2-RNA-wt]”, the result was active.

Take “GTCATAGCAACATCTGGCATT-3′IdT [5.2-RNA-3′IdT]”: the result was inactive.

On to “GTCATAGCAACATCTGGCATT-3′ddC [5.2-RNA-3′ddC]”, for which the outcome was inactive.

On to “GTC Aat GCA ACA TCT GGC ATT [Oligo 5.2-RNA-M5]”, for which the outcome was active.

For “TC ATA GCA ACA TCT GGC ATT [5.2-RNA-5′-20]”, the outcome was active.

Staying with this data set, now noted: AS83 made as ssDNA, dsRNA, dsDNA; making Palmer R-22 plant sensitive to glyphosate.
Regarding “CTCTTTGTTTTTCTTCTGCCAATTT (CTCTTTGTTTTTCTTCTGCCAATTT; chemistry not fully specified) [AS83-DNA-blunt, dsDNA 25-mer]”, the result was active.

In the case of “CUCUUUGUUUUUCUUCUGCCAAUUU (CUCUUUGUUUUUCUUCUGCCAAUUU; RNA, backbone not given here; further chemistry not fully specified; listed as Amaranthus palmeri) [AS83-RNA-wt-]”, the result was active.

The data set is the same for the next values; noted with them: AS83 triggers to EPSPS promoter of glyphosate resistant A. palmeri; 3′/5′ deletions, mismatch mutations; relative measure of activity.
Turning to “CTC TTT GTT TTT CTT CT (CTCTTTGTTTTTCTTCT; DNA, backbone and methylation of C not given here) [AS83-DNA-17-3′D, ssDNA 17-mer]”, the result was inactive.

Take “CTC TTT GTT TTT CTT CTG (CTCTTTGTTTTTCTTCTG; DNA, backbone and methylation of C not given here) [AS83-DNA-18-3′D, ssDNA 18-mer]”: the outcome was inactive.

Turning to “CTC TTT GTT TTT CTT CTG C (CTCTTTGTTTTTCTTCTGC; DNA, backbone and methylation of C not given here) [AS83-DNA-19-3′D, ssDNA 19-mer]”, the outcome was inactive.

As for “CTCTTTGTTTTTCTTCTGCC (CTCTTTGTTTTTCTTCTGCC; DNA, backbone and methylation of C not given here) [AS83-DNA-20-3′D, ssDNA 20-mer]”, the result was active.

For “CTCTTTGTTTTTCTTCTGCCA (CTCTTTGTTTTTCTTCTGCCA; chemistry not given here) [AS83-DNA-21-3′D, ssDNA 21-mer]”, the outcome was active.

In the case of “CTCTTTGTTTTTCTTCTGCCAA (CTCTTTGTTTTTCTTCTGCCAA; chemistry not given here) [AS83-DNA-22-3′D, ssDNA 22-mer]”, the result was active.

On to “CTCTTTGTTTTTCTTCTGCCAAT (CTCTTTGTTTTTCTTCTGCCAAT; chemistry not given here) [AS83-DNA-23-3′D, ssDNA 23-mer]”, for which the outcome was active.

Turning to “CTCTTTGTTTTTCTTCTGCCAATT (CTCTTTGTTTTTCTTCTGCCAATT; chemistry not given here) [AS83-DNA-24-3′D, ssDNA 24-mer]”, the outcome was active.

“CTCTTTGTTTTTCTTCTGCCAATTT (antisense CTCTTTGTTTTTCTTCTGCCAATTT; DNA, backbone and methylation of C not given here; listed as Amaranthus palmeri) [AS83-DNA-25-wt]”: the result was active.

For “CTCTTTGTTTTTCTTCTGCCAATTT-3′InvdT [AS83-DNA-3′InvdT]”, the outcome was inactive.

With “CTCTTTGTTTTTCTTCTGCCAATTT-3′ddC [AS83-DNA-3′ddC]”, the outcome was inactive.

Take “CTTTGTTTTTCTTCTGCCAATTT (CTTTGTTTTTCTTCTGCCAATTT; chemistry not given here) [AS83-DNA-23-5′D, ssDNA 23-mer]”: the result was active.

For “TCTTTGTTTTTCTTCTGCCAATTT (TCTTTGTTTTTCTTCTGCCAATTT; chemistry not given here) [AS83-DNA-24-5′D, ssDNA 24-mer]”, the outcome was active.

As for “TTG TTT TTC TTC TGC CA (TTGTTTTTCTTCTGCCA; DNA, backbone and methylation of C not given here) [AS83-DNA-17-5′D, ssDNA 17-mer]”, the result was inactive.

“TTG TTT TTC TTC TGC CAA (TTGTTTTTCTTCTGCCAA; DNA, backbone and methylation of C not given here) [AS83-DNA-18-5′D, ssDNA 18-mer]”: the result was inactive.

In the case of “TTG TTT TTC TTC TGC CAA T (TTGTTTTTCTTCTGCCAAT; DNA, backbone and methylation of C not given here) [AS83-DNA-19-5′D, ssDNA 19-mer]”, the Activity result was “less active”.

Turning to “TTGTTTTTCTTCTGCCAATT (TTGTTTTTCTTCTGCCAATT; chemistry not given here) [AS83-DNA-20-5′D, ssDNA 20-mer]”, the result was active.

As for “TTGTTTTTCTTCTGCCAATTT (TTGTTTTTCTTCTGCCAATTT; chemistry not given here) [AS83-DNA-21-5′D, ssDNA 21-mer]”, the outcome was active.

As for “TTTGTTTTTCTTCTGCCAATTT (TTTGTTTTTCTTCTGCCAATTT; chemistry not given here) [AS83-DNA-22-5′D, ssDNA 22-mer]”, the result was active.
